Assay results published in PubChem BioAssay (NCI).
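Five compound concentrations were applied to cells in 96-well plates for 48 hours; endpoints were derived by simple linear interpolation of the resulting dose-response curve. TGI marks complete inhibition of growth.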

Tests used:
Assay in all cases: growth of human tumour cells (NCI), 48 h
[1] = test system: SN12C renal
[2] = test system: HS 578T breast
[3] = test system: MDA-MB-231 breast
[4] = test system: HOP-92 NSCLC
[5] = test system: MCF7 breast
[6] = test system: OVCAR-3 ovarian
[7] = test system: NCI-H522 lung
[8] = test system: OVCAR-8 ovarian
[9] = test system: HCC-2998 colon
[10] = test system: RPMI-8226 leukemia
[11] = test system: SK-MEL-2 melanoma
[12] = test system: K-562 leukemia
[13] = test system: T-47D breast
[14] = test system: A498 renal
[15] = test system: SR leukemia
[16] = test system: UO-31 renal
[17] = test system: IGROV1 ovarian
[18] = test system: 786-0 renal
[19] = test system: SF-295 CNS
[20] = test system: KM12 colon
[21] = test system: RXF 393 renal
[22] = test system: M14 melanoma
[23] = test system: SNB-75 CNS
[24] = test system: HCT-116 colon
[25] = test system: OVCAR-4 ovarian
[26] = test system: OVCAR-5 ovarian
[27] = test system: DU-145 prostate
[28] = test system: SNB-19 CNS
[29] = test system: MDA-N
[30] = test system: EKVX NSCLC
[31] = test system: BT-549 breast
[32] = test system: SK-OV-3 ovarian
[33] = test system: CAKI-1 renal
[34] = test system: UACC-62 melanoma
[35] = test system: MDA-MB-435
[36] = test system: NCI-H23 lung
[37] = test system: LOX IMVI melanoma
[38] = test system: PC-3 prostate
[39] = test system: HCT-15 colon
[40] = test system: SW-620 colon
[41] = test system: MALME-3M melanoma
[42] = test system: UACC-257 melanoma
[43] = test system: NCI-H460 lung
[44] = test system: SK-MEL-5 melanoma
[45] = test system: TK-10 renal
[46] = test system: U251 CNS
[47] = test system: SF-268 CNS
[48] = test system: COLO 205 colon
[49] = test system: HOP-62 NSCLC
[50] = test system: NCI/ADR-RES ovarian
[51] = test system: SK-MEL-28 melanoma
[52] = test system: ACHN renal
[53] = test system: A549 NSCLC
[54] = test system: SF-539 CNS
[55] = test system: NCI-H226 lung
[56] = test system: HL-60(TB) leukemia
[57] = test system: CCRF-CEM leukemia
[58] = test system: MOLT-4 leukemia
[59] = test system: HT29 colon

Measured: TGI

O=C(O)Cc1ccc2nc(COC(=O)c3ccccc3)sc2c1
> 100 µM: [1] | [2] | [3] | [4] | [5] | [6] | [7] | [8] | [9] | [10] | [11] | [12] | [13] | [14] | [15] | [16] | [17] | [18] | [19] | [20] | [21] | [22] | [23] | [24] | [25] | [26] | [27] | [28] | [29] | [30] | [31] | [32] | [33] | [34] | [35] | [36] | [37] | [38] | [39] | [40] | [41] | [42] | [43] | [44] | [45] | [46] | [47] | [48] | [49] | [50] | [51] | [52] | [53]

CSc1c(C(=O)Nc2ccc(C)cc2)c(N)[nH]c(=O)c1C#N
> 100 µM: [1] | [2] | [3] | [5] | [6] | [7] | [8] | [9] | [10] | [54] | [11] | [12] | [13] | [14] | [15] | [16] | [18] | [20] | [21] | [22] | [23] | [24] | [25] | [55] | [26] | [27] | [56] | [28] | [29] | [57] | [30] | [31] | [32] | [33] | [34] | [35] | [36] | [37] | [38] | [39] | [40] | [41] | [42] | [43] | [44] | [45] | [46] | [47] | [48] | [58] | [50] | [51] | [53] | [59]
